Measured values from ChEMBL document CHEMBL5532725, “SARS-CoV-2 Main Protease Inhibitors That Leverage Unique Interactions with the Solvent Exposed S3 Site of the Enzyme” (ACS Med Chem Lett, 2024).

Each molecule was assayed against Replicase polyprotein 1ab (Severe acute respiratory syndrome coronavirus 2, UniProt P0DTD1) (assay: Inhibition of SARS-CoV-2 MPro preincubated for 30 mins followed by substrate addition by fluorescence based assay).
CC1(C)[C@@H]2[C@@H](C(=O)N[C@H](C#N)C[C@@H]3CCNC3=O)N(C(=O)[C@@H](NC(=O)C(F)(F)F)c3ccc(Cl)cc3)C[C@@H]21 was tested, and the IC50 was 420 nM.
CC1(C)[C@@H]2[C@@H](C(=O)N[C@H](C=O)C[C@@H]3CCNC3=O)N(C(=O)OC(c3ccc(F)cc3)c3ccc(F)cc3)C[C@@H]21 was tested, and the IC50 was 94 nM.
CC1(C)[C@@H]2[C@@H](C(=O)N[C@H](C=O)C[C@@H]3CCNC3=O)N(C(=O)[C@H](CC3CCCCC3)NC(=O)OCc3ccccc3)C[C@@H]21 was tested, and the IC50 was 250 nM.
With CC1(C)[C@@H]2[C@@H](C(=O)N[C@H](C=O)C[C@@H]3CCNC3=O)N(C(=O)C(c3ccc(Cl)cc3)c3ccc(Cl)cc3)C[C@@H]21 the IC50 was 280 nM.
Work on CC1(C)[C@@H]2[C@@H](C(=O)N[C@H](C=O)C[C@@H]3CCNC3=O)N(C(=O)N(c3ccc(Cl)cc3)c3ccc(Cl)cc3)C[C@@H]21 yielded an IC50 of 450 nM.
CC1(C)[C@@H]2[C@@H](C(=O)N[C@H](C=O)C[C@@H]3CCNC3=O)N(C(=O)OC(c3ccccc3)c3ccccc3)C[C@@H]21 gave an IC50 of 96 nM.
CC1(C)[C@@H]2[C@@H](C(=O)N[C@H](C=O)C[C@@H]3CCNC3=O)N(C(=O)C(Oc3ccc(Cl)cc3)Oc3ccc(Cl)cc3)C[C@@H]21 was tested, and the IC50 was 280 nM.
